Experimental data published in ChEMBL document CHEMBL5465560, “Selectivity Literature for EUbOPEN Chemogenomic Library” (2024).
Blank lines part the entries; values can stand above or below the compound they belong to.

Key:
[1] = target: Dual specificity tyrosine-phosphorylation-regulated kinase 1A (Homo sapiens, UniProt Q13627); experiment: Selectivity interaction (KinomeScan (DiscoverX)) EUB0001049a DYRK1A; conditions: at 1 µM
[2] = target: Serine/threonine-protein kinase PAK 6 (Homo sapiens) (UniProt Q9NQU5); experiment: Selectivity interaction (KinomeScan (DiscoverX)) EUB0001049a PAK6; conditions: at 1 µM
[3] = target: T1, Serine/threonine-protein kinase tousled-like 1 (Homo sapiens) (UniProt Q9UKI8); experiment: Selectivity interaction (ActivX KiNativ screen (kinase selectivity in THP-1 cell lysates)) EUB0000639a TLK1; type: subcellular; conditions: lysate, at 0.04 µM
T1 sequence (whole entry): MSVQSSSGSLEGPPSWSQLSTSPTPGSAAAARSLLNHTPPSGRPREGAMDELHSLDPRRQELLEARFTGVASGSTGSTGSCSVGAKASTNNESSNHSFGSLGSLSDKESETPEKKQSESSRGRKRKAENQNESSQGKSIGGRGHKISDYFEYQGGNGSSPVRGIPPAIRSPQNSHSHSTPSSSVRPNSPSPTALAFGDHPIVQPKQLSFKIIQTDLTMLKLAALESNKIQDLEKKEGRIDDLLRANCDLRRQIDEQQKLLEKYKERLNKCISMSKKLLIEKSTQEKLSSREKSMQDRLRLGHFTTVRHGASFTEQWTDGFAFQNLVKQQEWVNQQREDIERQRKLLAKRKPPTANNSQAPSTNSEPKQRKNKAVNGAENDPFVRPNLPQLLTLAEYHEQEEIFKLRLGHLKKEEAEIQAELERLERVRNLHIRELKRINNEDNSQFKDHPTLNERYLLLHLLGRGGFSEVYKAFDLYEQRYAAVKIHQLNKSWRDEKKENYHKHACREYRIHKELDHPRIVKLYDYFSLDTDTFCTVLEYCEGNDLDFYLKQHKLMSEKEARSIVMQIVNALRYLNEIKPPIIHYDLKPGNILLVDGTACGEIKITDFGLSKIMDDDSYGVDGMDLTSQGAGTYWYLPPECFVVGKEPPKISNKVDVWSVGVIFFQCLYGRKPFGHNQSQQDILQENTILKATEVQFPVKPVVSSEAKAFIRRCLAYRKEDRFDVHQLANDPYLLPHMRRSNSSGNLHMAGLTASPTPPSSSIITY

[4] = target: Peroxisome proliferator-activated receptor gamma (Homo sapiens) (UniProt P37231); experiment: Selectivity interaction (Eurofins CEREP Diversity Profile (receptors and ion channels)) EUB0000279b PPARG; conditions: at 10 µM
[5] = target: 3',5'-cyclic-AMP phosphodiesterase 4D (Homo sapiens) (UniProt Q08499); experiment: Selectivity interaction (Panel of non-epigenetic targets (kinases, GPCRs, ion channels, and transporters, Eurofins) ) EUB0000271b PDE4D; conditions: at 1 µM
[6] = target: Tyrosine-protein kinase Yes (Homo sapiens) (UniProt P07947); experiment: Selectivity interaction (KinomeScan (DiscoverX)) EUB0000595a YES1; conditions: at 10 µM
[7] = target: T2, Inhibitor of nuclear factor kappa-B kinase subunit epsilon (Homo sapiens) (UniProt Q14164); experiment: Selectivity interaction (KinomeScan (DiscoverX)) EUB0000229b IKBKE; conditions: at 10 µM
T2 sequence (whole entry): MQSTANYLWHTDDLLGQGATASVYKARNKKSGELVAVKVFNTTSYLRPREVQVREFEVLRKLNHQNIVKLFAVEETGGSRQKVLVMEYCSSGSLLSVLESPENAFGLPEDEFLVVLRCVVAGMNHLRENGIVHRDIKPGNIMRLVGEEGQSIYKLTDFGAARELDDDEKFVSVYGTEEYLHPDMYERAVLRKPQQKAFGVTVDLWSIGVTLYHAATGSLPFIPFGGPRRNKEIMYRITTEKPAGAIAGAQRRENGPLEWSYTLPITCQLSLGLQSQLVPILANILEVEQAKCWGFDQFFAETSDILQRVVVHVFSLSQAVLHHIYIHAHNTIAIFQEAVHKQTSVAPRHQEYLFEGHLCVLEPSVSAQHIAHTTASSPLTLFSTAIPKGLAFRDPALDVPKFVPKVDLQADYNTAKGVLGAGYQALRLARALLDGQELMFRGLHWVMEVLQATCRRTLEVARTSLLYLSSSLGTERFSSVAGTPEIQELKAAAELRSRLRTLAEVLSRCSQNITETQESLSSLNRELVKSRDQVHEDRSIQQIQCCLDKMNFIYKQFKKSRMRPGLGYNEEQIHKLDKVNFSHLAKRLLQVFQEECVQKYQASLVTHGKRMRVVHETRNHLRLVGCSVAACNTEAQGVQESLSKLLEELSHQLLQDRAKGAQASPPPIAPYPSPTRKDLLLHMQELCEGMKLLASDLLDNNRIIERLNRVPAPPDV

[8] = target: Serine/threonine-protein kinase pim-1 (Homo sapiens, UniProt P11309); experiment: Selectivity interaction (SelectScreen profiling (Invitrogen)) EUB0000607a PIM1; conditions: at 2 µM
[9] = target: T3, Serine/threonine-protein kinase TBK1 (Homo sapiens) (UniProt Q9UHD2); experiment: Selectivity interaction (Kinase panel (KiNativ target engagement assay in Jurkat cells)) EUB0001635a TBK1; type: cell-based; conditions: Selectivity number of off-targets 0.0, Selectivity number of targets 233.0, Source Knowledge https://www.sciencedirect.com/science/article/pii/S2451945619300674?via%3Dihub, at 1 µM
T3 sequence (whole entry): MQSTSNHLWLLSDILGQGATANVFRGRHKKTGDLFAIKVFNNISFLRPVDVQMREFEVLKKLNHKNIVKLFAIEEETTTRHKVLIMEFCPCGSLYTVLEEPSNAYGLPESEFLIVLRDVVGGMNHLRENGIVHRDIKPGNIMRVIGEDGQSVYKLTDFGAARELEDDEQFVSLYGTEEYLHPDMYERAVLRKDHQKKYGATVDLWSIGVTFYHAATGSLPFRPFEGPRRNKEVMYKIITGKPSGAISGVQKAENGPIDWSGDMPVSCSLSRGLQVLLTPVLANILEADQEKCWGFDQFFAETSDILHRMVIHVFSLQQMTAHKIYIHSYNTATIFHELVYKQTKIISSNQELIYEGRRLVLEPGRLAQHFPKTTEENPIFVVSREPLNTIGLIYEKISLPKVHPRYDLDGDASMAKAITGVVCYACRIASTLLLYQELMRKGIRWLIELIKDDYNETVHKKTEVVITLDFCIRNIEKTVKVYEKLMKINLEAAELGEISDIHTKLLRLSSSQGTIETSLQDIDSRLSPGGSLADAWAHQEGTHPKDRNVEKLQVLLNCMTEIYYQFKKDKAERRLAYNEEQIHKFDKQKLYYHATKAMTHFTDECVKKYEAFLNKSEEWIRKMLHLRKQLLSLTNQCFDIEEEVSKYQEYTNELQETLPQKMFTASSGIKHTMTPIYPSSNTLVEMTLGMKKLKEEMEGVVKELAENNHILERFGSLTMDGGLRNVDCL

[10] = target: Protein arginine N-methyltransferase 8 (Homo sapiens, UniProt Q9NR22); experiment: Selectivity interaction (Methyltransferase screen (Scintillation proximity assays)) EUB0000255b PRMT8
Sequence of Protein arginine N-methyltransferase 8 (Q9NR22 2-394 limits assumed): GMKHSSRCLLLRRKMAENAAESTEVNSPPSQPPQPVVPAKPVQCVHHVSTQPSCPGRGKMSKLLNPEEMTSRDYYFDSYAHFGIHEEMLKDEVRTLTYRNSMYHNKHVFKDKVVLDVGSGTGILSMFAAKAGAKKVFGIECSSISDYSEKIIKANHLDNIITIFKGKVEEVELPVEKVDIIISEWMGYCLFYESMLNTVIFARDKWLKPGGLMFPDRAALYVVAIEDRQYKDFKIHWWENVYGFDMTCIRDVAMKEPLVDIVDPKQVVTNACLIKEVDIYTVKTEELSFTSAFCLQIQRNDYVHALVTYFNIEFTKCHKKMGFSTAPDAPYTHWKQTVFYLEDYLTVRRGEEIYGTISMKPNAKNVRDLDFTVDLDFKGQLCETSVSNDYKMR

Sequence of Tyrosine-protein kinase Yes (Homo sapiens) (P07947 2-543 limits assumed): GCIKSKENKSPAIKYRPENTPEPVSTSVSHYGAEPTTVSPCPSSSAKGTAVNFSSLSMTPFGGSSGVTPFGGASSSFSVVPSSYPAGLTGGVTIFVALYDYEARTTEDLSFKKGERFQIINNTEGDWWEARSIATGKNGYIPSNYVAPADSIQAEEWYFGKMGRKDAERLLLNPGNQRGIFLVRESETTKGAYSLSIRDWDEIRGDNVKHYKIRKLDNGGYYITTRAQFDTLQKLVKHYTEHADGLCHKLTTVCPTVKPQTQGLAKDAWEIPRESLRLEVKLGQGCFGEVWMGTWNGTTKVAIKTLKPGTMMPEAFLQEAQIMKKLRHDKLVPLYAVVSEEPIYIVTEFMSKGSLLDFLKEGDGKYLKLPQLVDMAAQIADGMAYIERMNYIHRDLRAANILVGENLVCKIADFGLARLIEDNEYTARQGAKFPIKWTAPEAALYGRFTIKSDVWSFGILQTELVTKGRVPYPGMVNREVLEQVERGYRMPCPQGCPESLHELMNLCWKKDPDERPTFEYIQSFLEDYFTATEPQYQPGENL
Sequence of 3',5'-cyclic-AMP phosphodiesterase 4D (Homo sapiens) (Q08499 whole entry): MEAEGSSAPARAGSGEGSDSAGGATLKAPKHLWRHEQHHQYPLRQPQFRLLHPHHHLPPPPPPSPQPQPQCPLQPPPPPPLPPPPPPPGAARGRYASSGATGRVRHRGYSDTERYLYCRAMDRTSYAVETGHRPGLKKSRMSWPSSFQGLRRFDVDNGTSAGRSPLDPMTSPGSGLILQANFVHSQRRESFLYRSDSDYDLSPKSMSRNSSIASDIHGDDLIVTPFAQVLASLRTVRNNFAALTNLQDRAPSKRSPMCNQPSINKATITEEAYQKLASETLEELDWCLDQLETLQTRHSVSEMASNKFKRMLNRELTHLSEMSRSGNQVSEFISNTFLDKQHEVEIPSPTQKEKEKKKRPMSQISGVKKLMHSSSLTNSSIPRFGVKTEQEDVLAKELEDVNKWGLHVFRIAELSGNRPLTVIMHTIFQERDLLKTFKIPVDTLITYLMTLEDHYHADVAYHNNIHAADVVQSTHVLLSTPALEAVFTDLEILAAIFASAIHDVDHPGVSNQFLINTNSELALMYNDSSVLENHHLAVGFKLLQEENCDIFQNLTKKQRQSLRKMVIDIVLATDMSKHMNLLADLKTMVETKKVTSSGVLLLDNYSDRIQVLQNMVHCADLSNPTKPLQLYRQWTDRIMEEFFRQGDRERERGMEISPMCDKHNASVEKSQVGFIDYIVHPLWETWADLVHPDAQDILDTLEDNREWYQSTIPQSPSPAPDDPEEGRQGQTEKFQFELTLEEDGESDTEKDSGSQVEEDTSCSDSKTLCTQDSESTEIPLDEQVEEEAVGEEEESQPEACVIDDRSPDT
Sequence of Serine/threonine-protein kinase pim-1 (P11309 whole entry, looked up): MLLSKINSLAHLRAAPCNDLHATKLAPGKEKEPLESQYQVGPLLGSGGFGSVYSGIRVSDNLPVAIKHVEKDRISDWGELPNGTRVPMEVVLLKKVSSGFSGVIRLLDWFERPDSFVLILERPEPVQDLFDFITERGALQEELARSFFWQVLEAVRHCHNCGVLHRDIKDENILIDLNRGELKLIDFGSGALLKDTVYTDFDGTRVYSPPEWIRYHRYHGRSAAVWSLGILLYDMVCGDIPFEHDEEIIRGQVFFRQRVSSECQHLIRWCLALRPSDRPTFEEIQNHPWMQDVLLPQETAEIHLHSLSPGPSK
Sequence of Peroxisome proliferator-activated receptor gamma (Homo sapiens) (P37231 whole entry): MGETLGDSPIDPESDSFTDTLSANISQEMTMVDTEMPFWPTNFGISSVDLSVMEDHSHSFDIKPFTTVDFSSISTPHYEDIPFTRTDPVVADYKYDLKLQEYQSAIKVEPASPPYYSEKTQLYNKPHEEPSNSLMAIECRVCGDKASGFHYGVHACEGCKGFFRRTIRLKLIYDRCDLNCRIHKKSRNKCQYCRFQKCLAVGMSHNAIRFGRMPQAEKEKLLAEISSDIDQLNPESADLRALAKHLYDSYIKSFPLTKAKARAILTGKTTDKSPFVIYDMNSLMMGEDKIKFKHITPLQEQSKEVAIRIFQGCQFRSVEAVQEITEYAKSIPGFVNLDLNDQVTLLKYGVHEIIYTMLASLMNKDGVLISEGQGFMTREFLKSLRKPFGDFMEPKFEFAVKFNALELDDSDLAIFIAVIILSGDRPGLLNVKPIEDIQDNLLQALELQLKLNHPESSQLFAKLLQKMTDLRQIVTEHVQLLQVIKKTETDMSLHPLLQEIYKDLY
Sequence of Serine/threonine-protein kinase PAK 6 (Homo sapiens) (Q9NQU5 whole entry, looked up): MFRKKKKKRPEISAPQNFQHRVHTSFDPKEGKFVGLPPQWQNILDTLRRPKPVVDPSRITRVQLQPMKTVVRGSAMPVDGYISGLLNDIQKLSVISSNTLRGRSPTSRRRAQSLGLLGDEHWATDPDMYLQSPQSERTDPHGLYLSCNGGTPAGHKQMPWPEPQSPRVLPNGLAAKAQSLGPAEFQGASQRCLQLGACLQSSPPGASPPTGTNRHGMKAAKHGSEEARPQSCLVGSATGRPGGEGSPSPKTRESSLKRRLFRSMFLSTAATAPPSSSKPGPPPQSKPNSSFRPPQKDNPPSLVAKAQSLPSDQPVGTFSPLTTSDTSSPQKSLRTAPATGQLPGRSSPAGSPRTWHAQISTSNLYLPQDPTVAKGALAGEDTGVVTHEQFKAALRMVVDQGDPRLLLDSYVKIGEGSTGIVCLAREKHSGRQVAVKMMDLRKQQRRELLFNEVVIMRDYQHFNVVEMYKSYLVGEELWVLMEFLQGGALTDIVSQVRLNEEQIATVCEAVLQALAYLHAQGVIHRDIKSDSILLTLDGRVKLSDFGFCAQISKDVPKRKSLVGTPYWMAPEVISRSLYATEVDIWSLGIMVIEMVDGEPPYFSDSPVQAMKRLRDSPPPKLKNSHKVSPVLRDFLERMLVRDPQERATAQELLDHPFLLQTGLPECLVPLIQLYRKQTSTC

Structure (SMILES): COc1cc(Nc2nc(C)cc(-c3cnn4nc(OC)ccc34)n2)cc(C(F)(F)F)c1
- % of control [1]: 74%
- % of control [2]: 82%

- % of inhibition [3]: -7.3%
Structure (SMILES): CC[C@@H]1[C@H](F)C(=O)N[C@@H]1COc1nccc2cc(C(N)=O)c(OC)cc12 [ZIMLOVISERTIB]

- % of control [4]: 105%
Structure (SMILES): CC(=O)c1cc(-c2ccccc2OCC2CC2)c2ncccn12

Structure (SMILES): Cc1cc(C)cc([C@@H]2c3cc(C)ccc3NC(=O)CN2C(=O)c2ccc(Br)s2)c1
- % of inhibition [5]: -12%

Structure (SMILES): COCC(=O)NC/C=C/c1ccc2ncnc(Nc3ccc(Oc4ccc(C)nc4)c(C)c3)c2c1 [CP-724714]
- % of control [6]: 65%

Structure (SMILES): COc1cc(N(C)c2ccnc3ccc(C(F)(F)F)cc23)cc(OC)c1OC
- % binding [7]: 84%

Structure (SMILES): CNC(=O)Nc1ccc(-c2nc(N3CC4CCC(C3)O4)c3cnn(C4CCC5(CC4)OCCO5)c3n2)cc1
- % of inhibition [8]: 1%

Structure (SMILES): C=CC(=O)Nc1ccc(C(=O)Nc2[nH]nc3c2CN(C(=O)N[C@H](CN(C)C)c2ccccc2)C3(C)C)cc1
- % of engagement [9]: 32.4%

Structure (SMILES): COCCN1CCC(c2cc(CN(C)C(=O)c3cccc(Oc4ccccc4)c3)ccn2)CC1
- % activity ([10]; at 1 µM): 50%
- % activity ([10]; at 10 µM): > 90%
